We go through three compounds from patent US20260345621A1, “GABAA RECEPTOR MODULATORS AND USES THEREOF” (Engrail Therapeutics, Inc., priority 2022, published 2026).

Entries after “also recorded” stand apart in the source; their conditions may differ.

For series [1] the following is noted: phase II trial terminated; long term dosing studies; cited from earlier work.
Series [2] has as its system EEG spectral bands. Description: Pharmaco-EEG spectral analysis in wirelessly implanted rats.
Series [3] concerns sleep stages. Briefly: Sleep-stage analysis in wirelessly implanted rats. The settings on record: Lorazepam 1 mg/kg IP.
The test system of series [4] is anxiety (elevated plus maze). Briefly: Elevated plus maze (EPM). The settings on record: oral.
[5] abbreviates: Frontal-Parietal cortex, Quiet Wake.

As for `CCn1ncnc1COc1nn2c(-c3ccccc3F)nnc2cc1C(C)(C)C` [7-(1,1-dimethylethyl)-6-(2-ethyl-2H-1,2,4-triazol-3-ylmethoxy)-3-(2-fluorophenyl)-1,2,4-triazolo[4,3-b]pyridazine], the toxicity entry in series [1] was “terminated due to toxicity in long term dosing studies”.
As for `O=C1Nc2ccc(Cl)cc2C(c2ccccc2Cl)=NC1O` (centres unmarked) [Lorazepam, reference compound], the “EEG spectral power change” value in series [2] (Frontal-Frontal cortex, Active and Quiet Wake) was “increased beta, low and high gamma”; in series [2] (Frontal-Frontal cortex, NREM) it was “decreased theta, alpha, and beta, but increased low gamma”; in series [2] (Frontal-Frontal cortex, REM), “increased beta”; in series [2] (setting [5]), “decreased theta, increased beta and low and high gamma”; in series [2] (Frontal-Parietal cortex, REM) it was “increased theta, alpha, beta, and low gamma”; in series [2] (summary, Quiet Wake) it was “increased low & high gamma, decreased delta”. The “duration of EEG effects” value in series [2] (Frontal-Frontal cortex, NREM, Compound 1 high dose PO, Lorazepam 1 mg/kg IP) was 9 h; in series [2] (setting [5]), “did not last past four hours post dose”. In series [2] (Frontal-Parietal cortex, NREM), the “duration of increase in low and high gamma” value is “only lasting to two hours post dose”. Moreover, in series [3] (Compound 1 1 mg/kg PO), the NREM onset entry is given as “decreased the latency to NREM onset; also recorded: quicker time to Non-REM onset sleep than Compound 1”. For the same compound, the “Active Wake” value in series [3] (Compound 1 PO) is reported as “decreased Active Wake”. Further, the NREM result in series [3] (Compound 1 PO) is on record as “increased NREM”.
Regarding chlordiazepoxide [reference compound], the “effect compared with reference anxiolytic chlordiazepoxide” value in series [4] was “equivalent”.
